Assays:
[1] = target: α1M235Wβ3γ2S GABAA receptor (Rattus norvegicus, UniProt P62813+P63079, M262W); assay: I GABA enhancement by VA, two-microelectrode voltage clamp in Xenopus oocytes; format: cell-based
Text: (§1) […]. […] Concentration‐response curves were generated, and the data were fitted by non‐linear regression analysis using ORIGIN software (OriginLab Corporation, Northampton, MA, USA). Data were fitted to the Hill equation: y=min+max−min*x^n/k^nH+x^nH k corresponds to the EC50 value; x‐values are logs of concentration, and n H is the Hill coefficient. Each data point represents the mean ± SEM from ≥3 oocytes and two oocyte batches.
(§2) Follicle membranes covering oocytes were enzymatically digested with 2 mg·mL^−1 collagenase (type 1A). Mutations β3T262A, β3T262S, β3N265S, β3T266A, β3R269A, β3M286A, β3M286W and β3F289S in the β3‐subunit and α1I227A, α1L231A, α1M235A, α1M235W and α1L268A in the α1 subunit were introduced by site‐directed mutagenesis using the QuikChange mutagenesis kit (Agilent Technologies, Vienna, Austria). The coding regions of plasmids were sequenced before experimental use. After cDNA linearization, capped cRNA transcripts were produced using the mMESSAGE mMACHINE® T7 transcription kit (Life Technologies). Capped transcripts were polyadenylated using yeast poly(A)polymerase, diluted in nuclease‐free water and stored before injection at −80°C.
(§3) One day after isolation, the oocytes were injected with about 10–50 nL of nuclease‐free water containing the different rat cRNAs (100–2000 ng·μL^−1 per subunit). For expression of wild‐type α1β3γ2S and mutant receptors, cRNAs were mixed in a ratio of 1:1:10 (Boileau et al., 2002). Electrophysiological experiments were performed using the two‐microelectrode voltage clamp technique at a holding potential of −70 mV making use of a TURBO TEC 01C amplifier (NPI Electronic, Tamm, Germany) and an Axon Digidata 1322A interface (Molecular Devices, Sunnyvale, CA, USA). Data acquisition was carried out using PCLAMP v.9.2 (Molecular Devices, Sunnyvale, CA). The bath solution contained 90 mM NaCl, 1 mM KCl, 1 mM MgCl2, 1 mM CaCl2 and 5 mM HEPES (adjusted to pH 7.4 using 1 M NaOH). Microelectrodes were filled with 2 M KCl and had resistances between 1 and 3 MΩ (Khom et al., 2006).
(§4) Drug or control solutions were applied by means of a TECAN Miniprep 60 permitting automation of the experiments. […] […]. Oocytes with maximal current amplitudes >5 μA were discarded to exclude voltage‐clamp errors (Khom et al., 2006).

[2] = target: α1β3M286Aγ2S GABAA receptor (Rattus norvegicus, UniProt P62813+P63079, M311A); assay: as above; format: cell-based
Text: as §1, §2, §3, §4

[3] = target: α1β3F289Sγ2S GABAA receptor (Rattus norvegicus, UniProt P62813+P63079, F314S); assay: as above; format: cell-based
Text: as §1, §2, §3, §4

[4] = target: α1β3M286Wγ2S GABAA receptor (Rattus norvegicus, UniProt P62813+P63079, M311W); assay: as above; format: cell-based
Text: as §1, §2, §3, §4

[5] = target: α1β3N265Sγ2S GABAA receptor (Rattus norvegicus, UniProt P62813+P63079, N290S); assay: as above; format: cell-based
Text: as §1, §2, §3, §4

[6] = target: α1I227Aβ3γ2S GABAA receptor (Rattus norvegicus, UniProt P62813+P63079, I254A); assay: as above; format: cell-based
Text: as §1, §2, §3, §4

[7] = target: α1β3T266Aγ2S GABAA receptor (Rattus norvegicus, UniProt P62813+P63079, T291A); assay: as above; format: cell-based
Text: as §1, §2, §3, §4

[8] = target: α1M235Aβ3γ2S GABAA receptor (Rattus norvegicus, UniProt P62813+P63079, M262A); assay: as above; format: cell-based
Text: as §1, §2, §3, §4

[9] = target: α1L268Aβ3γ2S GABAA receptor (Rattus norvegicus, UniProt P62813+P63079, L295A); assay: as above; format: cell-based
Sequence of α1L268Aβ3γ2S GABAA receptor (P62813 28-455 L295A): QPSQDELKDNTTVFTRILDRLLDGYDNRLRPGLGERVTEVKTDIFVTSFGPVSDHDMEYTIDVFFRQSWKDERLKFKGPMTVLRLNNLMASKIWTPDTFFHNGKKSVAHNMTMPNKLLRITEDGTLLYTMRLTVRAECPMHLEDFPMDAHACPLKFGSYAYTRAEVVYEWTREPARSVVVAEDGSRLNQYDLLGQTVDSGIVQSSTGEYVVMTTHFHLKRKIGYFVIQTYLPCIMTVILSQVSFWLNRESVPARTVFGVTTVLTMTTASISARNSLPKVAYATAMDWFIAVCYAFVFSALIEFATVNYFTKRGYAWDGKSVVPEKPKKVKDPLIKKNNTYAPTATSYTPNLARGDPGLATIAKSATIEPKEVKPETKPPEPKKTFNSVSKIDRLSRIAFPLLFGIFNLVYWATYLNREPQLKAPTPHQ
Sequence of α1L268Aβ3γ2S GABAA receptor (P63079 26-473): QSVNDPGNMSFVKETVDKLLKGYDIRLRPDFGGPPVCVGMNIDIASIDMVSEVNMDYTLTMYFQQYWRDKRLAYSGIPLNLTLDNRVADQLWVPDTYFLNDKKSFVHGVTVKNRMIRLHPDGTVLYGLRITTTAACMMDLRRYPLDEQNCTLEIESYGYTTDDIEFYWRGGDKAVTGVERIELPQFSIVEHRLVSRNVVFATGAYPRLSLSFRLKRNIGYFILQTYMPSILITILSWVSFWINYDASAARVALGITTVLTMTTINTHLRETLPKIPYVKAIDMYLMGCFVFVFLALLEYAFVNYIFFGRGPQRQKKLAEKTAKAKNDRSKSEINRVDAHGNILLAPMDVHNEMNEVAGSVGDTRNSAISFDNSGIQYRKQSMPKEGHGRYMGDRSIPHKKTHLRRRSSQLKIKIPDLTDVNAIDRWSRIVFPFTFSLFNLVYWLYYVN
Sequence of α1L268Aβ3γ2S GABAA receptor (P18508 39-466 partner): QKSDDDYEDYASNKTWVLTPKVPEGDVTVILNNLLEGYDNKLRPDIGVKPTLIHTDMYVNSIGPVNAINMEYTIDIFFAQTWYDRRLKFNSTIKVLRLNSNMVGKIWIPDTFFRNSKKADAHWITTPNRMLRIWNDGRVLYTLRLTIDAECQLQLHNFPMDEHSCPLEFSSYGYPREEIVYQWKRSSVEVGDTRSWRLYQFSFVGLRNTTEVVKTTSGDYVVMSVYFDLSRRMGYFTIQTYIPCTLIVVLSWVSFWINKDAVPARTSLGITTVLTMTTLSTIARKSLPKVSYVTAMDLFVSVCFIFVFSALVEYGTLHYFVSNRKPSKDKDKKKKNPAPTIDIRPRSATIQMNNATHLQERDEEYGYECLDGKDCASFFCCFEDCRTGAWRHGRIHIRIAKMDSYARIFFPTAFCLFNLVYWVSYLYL
Text: as §1, §2, §3, §4

[10] = target: α1β3R269Aγ2S GABAA receptor (Rattus norvegicus, UniProt P62813+P63079, R294A); assay: as above; format: cell-based
Text: as §1, §2, §3, §4

[11] = target: α1β3T262Aγ2S GABAA receptor (Rattus norvegicus, UniProt P62813+P63079, T287A); assay: as above; format: cell-based
Text: as §1, §2, §3, §4

[12] = target: α1β3T262Sγ2S GABAA receptor (Rattus norvegicus, UniProt P62813+P63079, T287S); assay: as above; format: cell-based
Text: as §1, §2, §3, §4

[13] = target: α1L231Aβ3γ2S GABAA receptor (Rattus norvegicus, UniProt P62813+P63079, L258A); assay: as above; format: cell-based
Sequence of α1L231Aβ3γ2S GABAA receptor (P62813 28-455 L258A): as the sequence (P62813 28-455 L295A) above, with L231A, A268L counted along it
Sequence of α1L231Aβ3γ2S GABAA receptor (P63079 26-473): as the sequence (P63079 26-473) above
Sequence of α1L231Aβ3γ2S GABAA receptor (P18508 39-466 partner): as the sequence (P18508 39-466 partner) above
Text: as §1, §2, §3, §4

α1β3γ2S GABAA receptor = α1β3γ2S GABAA receptor (Rattus norvegicus, UniProt P62813+P63079); assay: as above; format: cell-based
Text: as §1, §2, §3, §4

β1‐containing channels = test system: β1‐containing channels; design: method as in Khom et al., 2007; details: ref Khom et al., 2007; cited from earlier work
GABAA receptors = test system: GABAA receptors; design: method as in Khom et al., 2007; details: high concentrations; ref Khom et al., 2007; cited from earlier work
[14] = read-out: Emax of I GABA enhancement

Sequence of α1M235Wβ3γ2S GABAA receptor (P62813 28-455 M262W): as the sequence (P62813 28-455 L295A) above, with M235W, A268L counted along it
Sequence of α1M235Wβ3γ2S GABAA receptor (P63079 26-473): as the sequence (P63079 26-473) above
Sequence of α1M235Wβ3γ2S GABAA receptor (P18508 39-466 partner): as the sequence (P18508 39-466 partner) above

In the case of `CC1=C2[C@H](/C=C(\C)C(=O)O)CC[C@@H](C)[C@H]2CC1` [VA, valerenic acid], the EC50 [1] is reported as 24.3 ± 7.7 µM, the Emax [1, 14] is reported as 193 ± 16% and the “n H (Hill coefficient, I GABA enhancement)” value ([1]; α1M235Wβ3γ2S, GABA EC3–7, mean ± SEM) is reported as 1.37 ± 0.34. The EC50 [2] was 60.1 ± 18.5 µM, the Emax [2, 14] was 283 ± 52% and the “n H (Hill coefficient, I GABA enhancement)” value ([2]; α1β3M286Aγ2S, GABA EC3–7, mean ± SEM) was 1.47 ± 0.21. The EC50 [3] was 181 ± 21.6 µM, the Emax [3, 14] was 222 ± 12% and the “rightward shift of VA's potency versus wild type” value ([3]; α1β3F289Sγ2S versus α1β3γ2S) was “ninefold”. For the same molecule, the “n H (Hill coefficient, I GABA enhancement)” value ([3]; α1β3F289Sγ2S, GABA EC3–7, mean ± SEM) was 1.20 ± 0.07, the Emax [4, 14] was 67 ± 35% and the “modulatory effects on I GABA (in words)” value ([4]; α1β3M286Wγ2S, GABA EC3–7) was “did not display any significant modulatory effects”. For the same molecule, the EC50 [5] was 143 ± 67.5 µM, the Emax [5, 14] was 134 ± 32% and the “reduction of efficacy of IGABA enhancement versus wild type” value ([5]; α1β3N265Sγ2S versus α1β3γ2S) was “approximately fivefold reduced”. The “reduction of potency of IGABA enhancement versus wild type” value ([5]; α1β3N265Sγ2S versus α1β3γ2S) was “sevenfold reduction”, the “n H (Hill coefficient, I GABA enhancement)” value ([5]; α1β3N265Sγ2S, GABA EC3–7, mean ± SEM) was 1.33 ± 0.39 and the EC50 [6] was 40.8 ± 8.4 µM. The Emax [6, 14] was 776 ± 60%, the “n H (Hill coefficient, I GABA enhancement)” value ([6]; α1I227Aβ3γ2S, GABA EC3–7, mean ± SEM) was 1.13 ± 0.08 and the EC50 [7] was 7.5 ± 1.5 µM. The Emax [7, 14] was 666 ± 55%, the “n H (Hill coefficient, I GABA enhancement)” value ([7]; α1β3T266Aγ2S, GABA EC3–7, mean ± SEM) was 1.26 ± 0.1 and the EC50 [8] was 21.1 ± 2.8 µM. The Emax [8, 14] was 546 ± 28%, the “n H (Hill coefficient, I GABA enhancement)” value ([8]; α1M235Aβ3γ2S, GABA EC3–7, mean ± SEM) was 1.19 ± 0.08 and the EC50 [9] was 19.9 ± 5.6 µM. For the same molecule, the Emax [9, 14] was 582 ± 80%, the “n H (Hill coefficient, I GABA enhancement)” value ([9]; α1L268Aβ3γ2S, GABA EC3–7, mean ± SEM) was 1.06 ± 0.13 and the EC50 [10] was 84.1 ± 14.7 µM. The Emax [10, 14] was 259 ± 22%, the “n H (Hill coefficient, I GABA enhancement)” value ([10]; α1β3R269Aγ2S, GABA EC3–7, mean ± SEM) was 1.63 ± 0.19 and the “reduction of efficacy of I GABA enhancement versus wild type” value ([10]; β3R269 mutated to alanine versus wild type) was “approximately 50%”. The EC50 [11] was 2.5 ± 0.8 µM, the Emax [11, 14] was 573 ± 96% and the “n H (Hill coefficient, I GABA enhancement)” value ([11]; α1β3T262Aγ2S, GABA EC3–7, mean ± SEM) was 1.00 ± 0.16. For the same molecule, the EC50 [12] was 3.4 ± 0.7 µM, the Emax [12, 14] was 578 ± 42% and the “n H (Hill coefficient, I GABA enhancement)” value ([12]; α1β3T262Sγ2S, GABA EC3–7, mean ± SEM) was 0.85 ± 0.15. For the same molecule, the EC50 [13] was 18.8 ± 4.4 µM, the Emax [13, 14] was 703 ± 82% and the “n H (Hill coefficient, I GABA enhancement)” value ([13]; α1L231Aβ3γ2S, GABA EC3–7, mean ± SEM) was 1.37 ± 0.18. The EC50 (α1β3γ2S GABAA receptor) was 20.2 ± 5.2 µM, the Emax (α1β3γ2S GABAA receptor; [14]) was 632 ± 88% and the “n H (Hill coefficient, I GABA enhancement)” value (α1β3γ2S GABAA receptor; α1β3γ2S, GABA EC3–7, mean ± SEM) was 1.50 ± 0.29. For the same molecule, the “effects on β1‐containing channels” value (β1‐containing channels) was “negligible effects”, the “concentration at which VA directly activates GABAA receptors” value (GABAA receptors) was no less than 30 µM and the “concentration at which VA inhibits GABAA receptors” value (GABAA receptors) was no less than 100 µM.

Reference: paper PMC4988470, “Identification of the putative binding pocket of valerenic acid on GABAA receptors using docking studies and site‐directed mutagenesis” (British Journal of Pharmacology, 2015)
